# Measured values reported in patent US4684664A, “Derivatives of β-(4-isocyano-1,2,3,4-diepoxycyclopentyl) acrylic acid” (Kureha Kagaku Kogyo Kabushiki Kaisha, priority 1984, dated 1987).
# Experiments:
# Format in all cases: cell-based
# Enterobacter cloacae 963 = assay: Antibacterial activity, agar-dilution MIC, organism No. 24; details: Enterobacter cloacae, 963; Organism No. 24, bouillon-agar; read-out: Minimum Inhibitory Concentration
# How it was run: (§1)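 Dilution in agar (bouillon-agar base) is the format; activity is expressed as MIC, μg per ml medium.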
# Salmonella typhi 901 = assay: Antibacterial activity, agar-dilution MIC, organism No. 9; details: Salmonella enterica, TYPHI, read-out: Minimum Inhibitory Concentration
# How it was run: as §1
# [1] = test system: Escherichia coli NIHJ-JC-2; assay: Antibacterial activity, agar-dilution MIC, organism No. 5; details: Escherichia coli, NIHJJC2; Organism No. 5, bouillon-agar; read-out: Minimum Inhibitory Concentration
# How it was run: as §1
# [2] = test system: Salmonella enteritidis G 14; assay: Antibacterial activity, agar-dilution MIC, organism No. 12; details: Salmonella enterica, ENTERITIDIS; Organism No. 12, bouillon-agar; read-out: Minimum Inhibitory Concentration
# How it was run: as §1
# [3] = test system: Streptococcus faecium IFO 3826; assay: Antibacterial activity, agar-dilution MIC, organism No. 27; details: Enterococcus faecium, IFO3826; Organism No. 27, bouillon-agar; read-out: Minimum Inhibitory Concentration
# How it was run: as §1
# [4] = test system: Escherichia coli K12 C600 IAM 1264; assay: Antibacterial activity, agar-dilution MIC, organism No. 6; details: Escherichia coli, IAM1264; Organism No. 6, bouillon-agar; read-out: Minimum Inhibitory Concentration
# How it was run: as §1
# [5] = test system: Streptococcus pyogenes IFO 3340; assay: Antibacterial activity, agar-dilution MIC, organism No. 26; details: Streptococcus pyogenes, IFO3340; Organism No. 26, bouillon-agar; read-out: Minimum Inhibitory Concentration
# How it was run: as §1
# [6] = test system: Aspergillus niger IFO 6342; assay: Antifungal activity, agar-dilution MIC, organism No. 30; details: Aspergillus niger, IFO6342; Organism No. 30, bouillon-agar; read-out: Minimum Inhibitory Concentration
# How it was run: as §1
# [7] = test system: Salmonella paratyphi-A 1015; assay: Antibacterial activity, agar-dilution MIC, organism No. 10; details: Salmonella enterica, PARATYPHI, read-out: Minimum Inhibitory Concentration
# How it was run: as §1
# [8] = test system: Staphylococcus aureus FDA 209PJc-1; assay: Antibacterial activity, agar-dilution MIC, organism No. 1; details: Staphylococcus aureus, FDA209PJC1; Organism No. 1, bouillon-agar; read-out: Minimum Inhibitory Concentration
# How it was run: as §1
# [9] = test system: Enterobacter aerogenes ATCC 13048; assay: Antibacterial activity, agar-dilution MIC, organism No. 23; details: Klebsiella aerogenes, ATCC13048; Organism No. 23, bouillon-agar; read-out: Minimum Inhibitory Concentration
# How it was run: as §1
# [10] = test system: Klebsiella pneumoniae PCI-602; assay: Antibacterial activity, agar-dilution MIC, organism No. 7; details: Klebsiella pneumoniae, PCI602; Organism No. 7, bouillon-agar; read-out: Minimum Inhibitory Concentration
# How it was run: as §1
# [11] = test system: Candida albicans IAM 4905; assay: Antifungal activity, agar-dilution MIC, organism No. 29; details: Candida albicans, IAM4905; Organism No. 29, bouillon-agar; read-out: Minimum Inhibitory Concentration
# How it was run: as §1
# [12] = test system: Streptococcus pyogenes Cook; assay: Antibacterial activity, agar-dilution MIC, organism No. 4; details: Streptococcus pyogenes; Organism No. 4, bouillon-agar; read-out: Minimum Inhibitory Concentration
# How it was run: as §1
# [13] = test system: Proteus mirabilis IFO 3849; assay: Antibacterial activity, agar-dilution MIC, organism No. 19; details: Proteus mirabilis, IFO3849; Organism No. 19, bouillon-agar; read-out: Minimum Inhibitory Concentration
# How it was run: as §1
# [14] = test system: Salmonella typhimurium IID 971; assay: Antibacterial activity, agar-dilution MIC, organism No. 8; details: Salmonella enterica; Organism No. 8, bouillon-agar; read-out: Minimum Inhibitory Concentration
# How it was run: as §1
# [15] = test system: Staphylococcus aureus MS 353; assay: Antibacterial activity, agar-dilution MIC, organism No. 3; details: Staphylococcus aureus, MS353; Organism No. 3, bouillon-agar; read-out: Minimum Inhibitory Concentration
# How it was run: as §1
# [16] = test system: Proteus morganii IFO 3848; assay: Antibacterial activity, agar-dilution MIC, organism No. 18; details: Morganella morganii, IFO3848; Organism No. 18, bouillon-agar; read-out: Minimum Inhibitory Concentration
# How it was run: as §1
# [17] = test system: Micrococcus luteus ATCC 9341; assay: Antibacterial activity, agar-dilution MIC, organism No. 25; details: Micrococcus luteus, ATCC9341; Organism No. 25, bouillon-agar; read-out: Minimum Inhibitory Concentration
# How it was run: as §1
# [18] = test system: Serratia marcescens IAM 1184; assay: Antibacterial activity, agar-dilution MIC, organism No. 13; details: Serratia marcescens, IAM1184; Organism No. 13, bouillon-agar; read-out: Minimum Inhibitory Concentration
# How it was run: as §1
# [19] = test system: Pseudomonas aeruginosa IFO 3445; assay: Antibacterial activity, agar-dilution MIC, organism No. 15; details: Pseudomonas aeruginosa, IFO3445; Organism No. 15, bouillon-agar; read-out: Minimum Inhibitory Concentration
# How it was run: as §1
# [20] = test system: Pseudomonas aeruginosa PAO 1; assay: Antibacterial activity, agar-dilution MIC, organism No. 17; details: Pseudomonas aeruginosa, PAO1; Organism No. 17, bouillon-agar; read-out: Minimum Inhibitory Concentration
# How it was run: as §1
# Proteus vulgaris HX-19 = assay: Antibacterial activity, agar-dilution MIC, organism No. 21; details: Proteus vulgaris, HX19; Organism No. 21, bouillon-agar; read-out: Minimum Inhibitory Concentration
# How it was run: as §1
# Proteus vulgaris OX-19 = assay: Antibacterial activity, agar-dilution MIC, organism No. 20; details: Proteus vulgaris, OX19; Organism No. 20, bouillon-agar; read-out: Minimum Inhibitory Concentration
# How it was run: as §1
# [21] = test system: Pseudomonas aeruginosa NCTC 10490; assay: Antibacterial activity, agar-dilution MIC, organism No. 16; details: Pseudomonas aeruginosa, NCTC10490; Organism No. 16, bouillon-agar; read-out: Minimum Inhibitory Concentration
# How it was run: as §1
# [22] = test system: Bacillus subtilis ATCC 6633; assay: Antibacterial activity, agar-dilution MIC, organism No. 14; details: Bacillus subtilis, ATCC6633; Organism No. 14, bouillon-agar; read-out: Minimum Inhibitory Concentration
# How it was run: as §1
# [23] = test system: Staphylococcus aureus Terajima; assay: Antibacterial activity, agar-dilution MIC, organism No. 2; details: Staphylococcus aureus; Organism No. 2, bouillon-agar; read-out: Minimum Inhibitory Concentration
# How it was run: as §1
# [24] = test system: Mycoplasma pneumoniae IID817; assay: Antimycoplasmal activity, MIC by phenol red colour change, organism No. 28; details: Mycoplasma, IID817; Organism No. 28, PPLO broth + 1% glucose, 37° C.; read-out: Minimum Inhibitory Concentration (MIC)
# Protocol: Mycoplasma pneumoniae IID817 was used as the test microorganism in a culture medium prepared by adding 1% of glucose to "PPLO broth (manufactured by Difco Co.) liquid culture medium" at 37° C. with phenol red as an indicator, thereby culturing the test microorganism.
# [25] = test system: Salmonella shottmuelleri 8006; assay: Antibacterial activity, agar-dilution MIC, organism No. 11; details: Salmonella, 8006; Organism No. 11, bouillon-agar; read-out: Minimum Inhibitory Concentration
# How it was run: as §1
# [26] = test system: Proteus rettgeri IFO 3850; assay: Antibacterial activity, agar-dilution MIC, organism No. 22; details: Providencia rettgeri, IFO3850; Organism No. 22, bouillon-agar; read-out: Minimum Inhibitory Concentration
# How it was run: as §1
SMILES,MIC (Enterobacter cloacae 963) [µg/mL],MIC (Salmonella typhi 901) [µg/mL],MIC [1] [µg/mL],MIC [2] [µg/mL],MIC [3] [µg/mL],MIC [4] [µg/mL],MIC [5] [µg/mL],MIC [6] [µg/mL],MIC [7] [µg/mL],MIC [8] [µg/mL],MIC [9] [µg/mL],MIC [10] [µg/mL],MIC [11] [µg/mL],MIC [12] [µg/mL],MIC [13] [µg/mL],MIC [14] [µg/mL],MIC [15] [µg/mL],MIC [16] [µg/mL],MIC [17] [µg/mL],MIC [18] [µg/mL],also measured
[C-]#[N+]C12CC3(/C=C/C(=O)Nc4ccc(C(=O)O)cc4)OC3C1O2 (stereo not drawn) [compound 51],> 200,50,200,50,12.5,200,25,100,50,12.5,> 200,100,100,12.5,> 200,100,6.25,1.56,1.56,> 200,MIC [19]: > 200 µg/mL; MIC [20]: > 200 µg/mL; MIC (Proteus vulgaris HX-19): 12.5 µg/mL; MIC (Proteus vulgaris OX-19): 12.5 µg/mL; MIC [21]: > 200 µg/mL; MIC [22]: 50 µg/mL; MIC [23]: 12.5 µg/mL; MIC [24]: < 0.2 µg/mL; MIC [25]: 50 µg/mL; MIC [26]: > 200 µg/mL
[C-]#[N+]C12CC3(/C=C/C(=O)Nc4cccc(C(=O)O)c4)OC3C1O2 (stereo not drawn) [compound 52],> 200,50,200,50,50,200,100,100,50,12,> 200,200,100,50,> 200,100,25,12.5,25,> 200,MIC [19]: > 200 µg/mL; MIC [20]: > 200 µg/mL; MIC (Proteus vulgaris HX-19): 50 µg/mL; MIC (Proteus vulgaris OX-19): 50 µg/mL; MIC [21]: > 200 µg/mL; MIC [22]: 200 µg/mL; MIC [23]: 50 µg/mL; MIC [24]: < 0.2 µg/mL; MIC [25]: 50 µg/mL; MIC [26]: > 200 µg/mL
[C-]#[N+]C12CC3(/C=C/C(=O)Nc4cccc(OC)c4)OC3C1O2 (stereo not drawn) [compound 54],> 200,3.13,50,3.13,25,50,0.39,1.56,0.78,0.39,> 200,0.2,0.79,25,> 200,6.25,0.2,0.39,0.05,100,MIC [19]: > 200 µg/mL; MIC [20]: > 200 µg/mL; MIC (Proteus vulgaris HX-19): 0.3 µg/mL; MIC (Proteus vulgaris OX-19): 0.39 µg/mL; MIC [21]: > 200 µg/mL; MIC [22]: 3.13 µg/mL; MIC [23]: 1.56 µg/mL; MIC [24]: < 0.2 µg/mL; MIC [25]: 0.39 µg/mL; MIC [26]: 6.25 µg/mL
[C-]#[N+]C12CC3(/C=C/C(=O)Nc4ccccc4OC)OC3C1O2 (stereo not drawn) [compound 55],> 200,25,200,12.5,200,200,6.25,12.5,12.5,1.56,> 200,0.39,3.13,200,> 200,50,0.78,6.25,< 0.05,> 200,MIC [19]: > 200 µg/mL; MIC [20]: > 200 µg/mL; MIC (Proteus vulgaris HX-19): < 0.05 µg/mL; MIC (Proteus vulgaris OX-19): 6.25 µg/mL; MIC [21]: > 200 µg/mL; MIC [22]: 25 µg/mL; MIC [23]: 3.13 µg/mL; MIC [24]: < 0.2 µg/mL; MIC [25]: 3.13 µg/mL; MIC [26]: > 200 µg/mL
[C-]#[N+]C12CC3(/C=C/C(=O)Nc4cccc(O)c4)OC3C1O2 (stereo not drawn) [compound 57],100,3.13,12.5,3.13,25,12.5,3.13,50,3.13,1.56,> 200,1.56,50,12.5,6.25,12.5,1.56,1.56,0.1,12.5,MIC [19]: > 200 µg/mL; MIC [20]: > 200 µg/mL; MIC (Proteus vulgaris HX-19): 0.78 µg/mL; MIC (Proteus vulgaris OX-19): 1.56 µg/mL; MIC [21]: > 200 µg/mL; MIC [22]: 6.25 µg/mL; MIC [23]: 6.25 µg/mL; MIC [24]: < 0.2 µg/mL; MIC [25]: 1.56 µg/mL; MIC [26]: 3.13 µg/mL
